Assay results published in patent publication US11312693B2, “Protease inhibitors” (MEDIVIR AB, priority 2008, dated 2022).

Columns and labels:
[1] = In vivo mouse PK, oral administration (FIG. 1); set-up: species or system male C57BI mice; conditions: 60 μmol/kg in 1% Methocel A4C, versus Example 2 of WO2008 007107
Excerpt: FIG. 1 depicts plasma concentration against time for male C57BI mice orally administered a compound of the invention or a compound of the prior art.
Various embodiments of the invention will now be described by way of illustration only with reference to the following Examples and FIG. 1 which depicts plasma concentration against time for male C57BI mice orally administered a compound of the invention or a compound of the prior art.

[2] = Metabolic stability in whole blood; assay type: in vitro ADME; conditions: from CLint
Method: Compounds of the invention and the indicated comparative examples were tested for metabolic stability in a cytosol assay in which the compounds were incubated with commercially available human hepatic cytosol fractions and the disappearance of the compound monitored by HPLC or LC/MS. Pooled human liver cytosol fractions are less likely to represent outlier individuals than blood from a single individual and can be stored frozen, unlike whole blood. The cytosol assay thus provides a consistent assay testbed as a guide to the stability of a compound in the in vivo environment, such as when exposed to whole blood.
In short, test compounds (2 μM) are incubated in pooled human liver cytosol (Xenotech LLC Lenexa US, 1 mg/mL protein in 0.1M phosphate buffer, pH 7.4) at 37° centigrade over a one hour period. The incubations are initiated by the addition of 1 mM NADPH co-factor. Timed sub-samples were taken at 0, 20, 40 and 60 minutes and “crash precipitated” by the addition of 3 volumes of ice-cold acetonitrile. The samples were centrifuged at reduced temperature and the supernatants were separated and analyzed by LC-MS-MS.
Alternatively, an analogous stability assay is carried out in human or monkey whole blood and/or commercially available liver microsomes, such as XEN 025.

in vivo exposure (whether measured as Cmax or AUC) [1]	estimated / calculated whole blood half life [2]	SMILES
very much greater	–	C#C[C@@H]1CN(C(=O)[C@H](CC(C)C)NC(=O)c2ccc(-c3nc(N4CCN(C)CC4)sc3F)cc2)[C@@H]2C(=O)CO[C@H]12 [Example 2, N-[1-6-(ethynyl-3-oxo-hexahydro-furo[3,2-b]pyrrole-4-carbonyl)-3-methyl-butyl]-4-[5-fluoro-2-(4-methyl-piperazin-1-yl)thiazol-4-yl]-benzamide]
–	little over an hour	CC(C)C[C@H](NC(=O)c1ccc(-c2csc(N3CCN(C)CC3)n2)cc1)C(=O)N1C[C@@H](C)[C@H]2OCC(=O)[C@H]21 [comparative example]
